Experimental data from patent US11690922B2, “Lipid compound as well as lipid carrier, nucleic acid lipid nanoparticle composition and pharmaceutical preparation containing same” (Purecodon (Hong Kong) Biopharma Ltd., priority 2021, dated 2023).

What was measured:
[1] = Particle size, PDI, Zeta and entrapment efficiency of each LNP@mRNA; format: physicochemical; settings: for Entrapment efficiency (%) / PDI / Particle size (nm) / Zeta (mV): luciferase mRNA; for particle size of the LNP@mRNA (in words): LNP@mRNA with cholesterol, DSPC, PEG-DMG (Example 25), compared among compounds 1-8
Experimental: Compounds 1-8 were respectively dissolved in ethanol together with cholesterol, DSPC, PEG-DMG at a molar ratio of 50:38.5:10:1.5, luciferase mRNA was dissolved in a 50 mM citric acid buffered saline solution with a pH of 4.0, a volume ratio of the two solutions was 1:3, two phases were rapidly mixed by using microfluidics and a buffer environment was replaced into PBS with a pH of 7.4 by using dialysis or a tangential flow, so as to remove ethanol, and eight LNP@mRNAs were respectively prepared.
Thus, it can be seen that the entrapment efficiency to the nucleic acid drug by the compound provided by the present invention is high, and, using this compound as a carrier can improve the in-vivo delivery efficiency of the nucleic acid drug.
Compounds 13, and 14 and cholesterol, DOPC, and PEG-DMG were dissolved in ethanol at a molar ratio of 50:38.5:10:1.5, luciferase mRNA was dissolved in a 50 mM citric acid buffered saline solution with a pH of 4.0, a volume ratio of the two solutions was 1:3, two phases were mixed rapidly by using microfluidics and a buffer environment was replaced into PBS with a pH of 7.4 by using dialysis or a tangential flow, so as to remove ethanol, and two LNP@mRNAs were respectively prepared.

[2] = Zeta electric potentials of LNP@mRNA under different pHs; format: physicochemical; settings: Example 26 LNP (cholesterol, DOPC, PEG-DMG), FIG. 7
mice = assay: Fluorescence intensity and organ distribution in mice 6 hours after injection of luciferase LNP@mRNA; format: in vivo; settings: mouse, after 6 hours; for organ distribution of mRNA expression: intramuscular injection
Experimental: LNP@mRNAs prepared were respectively injected into a mouse body via a caudal vein or muscle, and after 6 hours, the fluorescence intensity and organ distribution in mice were tested. […] Therefore, a lipid compound with a specific structure can be chosen as a lipid carrier based on an organ in which the nucleic acid drug needs to be enriched.
LNP@mRNAs prepared were respectively injected into a mouse body via a caudal vein or muscle, and after 6 hours, the fluorescence intensity and organ distribution in mice were tested.

[3] = LNP@mRNA of compound:cholesterol:DSPC:PEG-DMG 50:38.5:10:1.5 molar, PBS pH 7.4 (Example 25)
[4] = LNP@mRNA of compound:cholesterol:DOPC:PEG-DMG 50:38.5:10:1.5 molar, PBS pH 7.4 (Example 26)

| Structure (SMILES) | Entrapment efficiency (%) [1, 3] [%] | PDI [1, 3] | Particle size (nm) [1, 3] [nm] | Zeta (mV) [1, 3] [mV] | particle size of the LNP@mRNA (in words) [1] | further results |
| --- | --- | --- | --- | --- | --- | --- |
| CCCCCCCCC(CCCCCC)C(=O)OCCCCOC(=O)CCN(CCO)CCC(=O)OCCCCOC(=O)C(CCCCCC)CCCCCCCC (stereo not drawn) [Compound 1] | 87 | 0.06 | 95 | −9 | small |  |
| CCCCCCCCC(CCCCCC)C(=O)OCCCCOC(=O)CCN(CCCCO)CCC(=O)OCCCCOC(=O)C(CCCCCC)CCCCCCCC (stereo not drawn) [Compound 3] | 86 | 0.07 | 76 | −15 | small |  |
| CCCCCCC(CCCC)C(=O)OCCCCOC(=O)CCN(CCCn1ccnc1)CCC(=O)OCCCCOC(=O)C(CCCC)CCCCCC (stereo not drawn) [Compound 13] |  |  |  |  |  | Zeta electric potential of the LNP@mRNA ([2]; pH about 2): strong positive electricity; Zeta electric potential of the LNP@mRNA ([2]; pH close to 5): electric neutrality; Zeta electric potential of the LNP@mRNA ([2]; pH greater than 8): strong electronegativity; maximum fluorescence of intramuscular injection of LNP@mRNA (effect) (mice; Example 26 LNP (DOPC), comparison of compounds 13 and 14, FIG. 4): better; Entrapment efficiency (%) [1, 4]: 85%; PDI [1, 4]: 0.03; Particle size (nm) [1, 4]: 156 nm; Zeta (mV) [1, 4]: −19 mV |
| CCCCCCC(CCCC)C(=O)OCCCCOC(=O)CCN(CCCCO)CCC(=O)OCCCCOC(=O)C(CCCC)CCCCCC (stereo not drawn) [Compound 7] | 82 | 0.05 | 116 | −18 |  | maximum fluorescence of intramuscular injection of LNP@mRNA (effect) (mice; Example 25 LNP (DSPC), comparison among compounds 1-8, FIG. 1): better; organ distribution of mRNA expression (mice; Example 25 LNP (DSPC), FIG. 2 and 3): manly expressed in spleen |
| CCCCCCCCC(CCCCCC)C(=O)OCCCCOC(=O)CCN(CCCn1ccnc1)CCC(=O)OCCCCOC(=O)C(CCCCCC)CCCCCCCC (stereo not drawn) [Compound 14] |  |  |  |  |  | organ distribution of mRNA expression (mice; Example 26 LNP (DOPC), FIG. 5 and 6): mainly expressed in spleen; Entrapment efficiency (%) [1, 4]: 87%; PDI [1, 4]: 0.07; Particle size (nm) [1, 4]: 122 nm; Zeta (mV) [1, 4]: −11 mV |
| CCCCCCC(CCCC)C(=O)OCCCCOC(=O)CCN(CCCO)CCC(=O)OCCCCOC(=O)C(CCCC)CCCCCC (stereo not drawn) [Compound 6] | 72 | 0.06 | 125 | −12 |  |  |
| CCCCCCCCC(CCCCCC)C(=O)OCCCCOC(=O)CCN(CCCCCO)CCC(=O)OCCCCOC(=O)C(CCCCCC)CCCCCCCC (stereo not drawn) [Compound 4] | 82 | 0.09 | 77 | −12 | small |  |
| CCCCCCCCC(CCCCCC)C(=O)OCCCCOC(=O)CCN(CCCO)CCC(=O)OCCCCOC(=O)C(CCCCCC)CCCCCCCC (stereo not drawn) [Compound 2] | 86 | 0.07 | 68 | −14 | small |  |
| CCCCCCC(CCCC)C(=O)OCCCCOC(=O)CCN(CCCCCO)CCC(=O)OCCCCOC(=O)C(CCCC)CCCCCC (stereo not drawn) [Compound 8] | 82 | 0.07 | 124 | −12 |  |  |
| CCCCCCC(CCCC)C(=O)OCCCCOC(=O)CCN(CCO)CCC(=O)OCCCCOC(=O)C(CCCC)CCCCCC (stereo not drawn) [Compound 5] | 80 | 0.10 | 114 | −13 |  |  |
